The target in one test is T1, human eIF4E protein (Homo sapiens, UniProt P06730).
T1 construct: purchased Novus NBP-45314
As to the kind of experiment: Biochemical competitive binding assay (TR-FRET competition, EDA-m7GDP-ATTO-647N probe). The following applies: read-out: hEIF4E TR-FRET IC50. A digest of the protocol: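 IC50 values come from 4-parameter fits of the normalized 665/620 nm TR-FRET ratio. Compound was first incubated 15 min with 4 nM recombinant His-eIF4E bound to 2.5 nM Eu-anti-His antibody, then 15 min with 5 nM m7GDP-ATTO-647N tracer, in pH 7.5 HEPES buffer with 100 mM KCl, Tween-20 and BSA.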
(In general: In TR-FRET formats the signal depends on donor and acceptor labels being close together.)

Test [1] relates to cap-dependent translation in Flp-In-293 reporter cells. As to the kind of experiment: Cellular cap-dependent translation inhibition assay (dual luciferase assay, DLA; Fluc/Rluc ratio, 24 hours). It is filed as cell-based. The following applies: dual luciferase assay, Flp-In-293 reporter cells, 24 hours, Fluc/Rluc ratio, read-out: DLA 205 IC50.
Test [2] relates to COLO 205 colorectal tumor cells. Description: Tumor cell viability inhibition assay (CellTiter-Glo 2.0, 72 hours). The class given is cell-based. Conditions: COLO 205 cell viability. A digest of the protocol:
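IC50 derived by 4-parameter fitting after normalizing luminescence to DMSO and max-inhibition wells. Compounds tested as 11 concentrations in 4-fold steps on COLO 205 cells seeded at 1500 per well in RPMI-1640/10% FBS; ATP content measured with CellTiter-Glo 2.0 after 72 h.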
On the technique in general: In ATP-based viability assays light output follows the ATP content of the culture.

Experimental findings from patent US20240246918A1, “COMPOUNDS AND COMPOSITIONS AS EIF4E INHIBITORS AND THE USES THEREOF” (Ribometrix, Inc., priority 2022, published 2024) are described below.

What is called pIC50 is the IC50 on a negative log10 scale, so that one unit is a factor of ten.

pIC50: −log10 of the molar value. Where two headings read alike, the source gives them in different places. Bounds are passed on as bounds.

T1 sequence (P06730 whole entry): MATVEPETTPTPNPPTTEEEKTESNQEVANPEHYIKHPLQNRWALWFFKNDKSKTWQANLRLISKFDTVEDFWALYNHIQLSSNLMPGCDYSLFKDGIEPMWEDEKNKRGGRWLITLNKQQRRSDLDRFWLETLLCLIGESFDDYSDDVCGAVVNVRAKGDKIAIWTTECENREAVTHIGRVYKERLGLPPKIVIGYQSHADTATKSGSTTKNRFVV

`Cc1cc(-c2cc(Cl)ccc2OCCn2c(C)nc3c(c2=O)CC(N2CCC[C@H](F)C2)CC3)c2scc(C(=O)NS(C)(=O)=O)c2n1` (single isomer, unassigned) [Compound 264]: the pIC50 on human eIF4E protein was more than 7.00; in test [1] (Homo sapiens, Flp-In-293, 24 h), more than 6.00; in test [2] (Homo sapiens, COLO 205, 72 h) it was more than 5.30.
The corresponding values for `Cc1cc(-c2cc(Cl)ccc2OCCn2c(C)nc3c(c2=O)CC(N(C)CC(F)F)CC3)c2scc(C(=O)NS(C)(=O)=O)c2n1` (stereo not drawn) [Compound 65] are more than 7.00, more than 6.00 and more than 5.30.
Consider `Cc1cc(-c2cc(Cl)ccc2OCCn2c(C)nc3c(c2=O)CC(N2CC(C(F)(F)F)C2)CC3)c2scc(C(=O)NS(C)(=O)=O)c2n1` (single isomer, unassigned) [Compound 321], for which the pIC50 on human eIF4E protein was more than 7.00; in test [1] (Homo sapiens, Flp-In-293, 24 h) it was more than 6.00; in test [2] (Homo sapiens, COLO 205, 72 h), more than 5.30.
On to `CO[C@H]1CCN([C@@H]2CCc3nc(C)n(CCOc4ccc(Cl)cc4-c4cc(C)nc5c(C(=O)O)csc45)c(=O)c3C2)C1` (single isomer, unassigned) [Compound 48], for which the pIC50 at human eIF4E protein was more than 7.00; in test [1] (Homo sapiens, Flp-In-293, 24 h) it was more than 6.00; in test [2] (Homo sapiens, COLO 205, 72 h), more than 5.30.
`Cc1cc(-c2cc(Cl)ccc2OCCn2c(C)nc3c(c2=O)CC(N(C2CCC2)C2CC2)CC3)c2scc(C(=O)O)c2n1` (stereo not drawn) [Compound 97]: the pIC50 is more than 7.00 on human eIF4E protein; more than 6.00 in test [1] (Homo sapiens, Flp-In-293, 24 h); more than 5.30 in test [2] (Homo sapiens, COLO 205, 72 h).
For the molecule `Cc1nc2c(c(=O)n1CC#Cc1ccc(Cl)cc1-c1ccnc3c(C(=O)NS(C)(=O)=O)csc13)CC(N(C)Cc1ccncc1)CC2` (single isomer, unassigned) [Compound 314], the pIC50 at human eIF4E protein is more than 7.00; in test [1], 5.30 to 6.00; in test [2], 4.70 to 5.30.
For `Cc1cc(-c2cc(Cl)ccc2OCCn2c(C)nc3c(c2=O)CC(N(C)C2CN(CC(F)(F)F)C2)CC3)c2scc(C(=O)O)c2n1` (stereo not drawn) [Compound 64, 7-[5-chloranyl-2-[2-[2-methyl-6-[methyl-[1-[2,2,2-tris(fluorenyl)ethyl]azetidin-3-yl]amino]-4-oxidanylidene-5,6,7,8-tetrahydroquinazolin-3-yl]ethoxy]phenyl]-5-methyl-thieno[3,2-b]pyridine-3-carboxylic acid; 2,2,2-tris(fluorenyl)acetic acid], the pIC50 on human eIF4E protein was more than 7.00; in test [1] (Homo sapiens, Flp-In-293, 24 h) it was more than 6.00; in test [2] (Homo sapiens, COLO 205, 72 h) it was more than 5.30.
On to `Cc1cc(-c2cc(Cl)ccc2OCCn2c(C)nc3c(c2=O)CC(N(C)Cc2ccncc2)CC3)c2scc(C(=O)NS(C)(=O)=O)c2n1` (single isomer, unassigned) [Compound 330], for which the pIC50 on human eIF4E protein is more than 7.00; in test [1] (Homo sapiens, Flp-In-293, 24 h) it was more than 6.00; in test [2] (Homo sapiens, COLO 205, 72 h), more than 5.30.
The matching figures for `Cc1nc2c(c(=O)n1CC#Cc1ccc(Cl)cc1-c1ccnc3c(C(=O)NS(C)(=O)=O)csc13)CC(N1CC(F)C1)CC2` (stereo not drawn) [Compound 325]: more than 7.00, more than 6.00 and more than 5.30.
As to `Cc1nc2c(c(=O)n1CC#Cc1ccc(Cl)cc1-c1ccnc3c(C(=O)O)csc13)C[C@H](N1CC[C@H](F)C1)CC2` (single isomer, unassigned) [Compound 294], the pIC50 on human eIF4E protein was more than 7.00; in test [1] (Homo sapiens, Flp-In-293, 24 h), more than 6.00; in test [2] (Homo sapiens, COLO 205, 72 h), more than 5.30.
Take `Cc1cc(-c2cc(Cl)ccc2OCCn2c(C)nc3c(c2=O)CC(N2CCCC(F)(F)C2)CC3)c2scc(C(=O)NS(C)(=O)=O)c2n1` (stereo not drawn) [Compound 81]: the pIC50 on human eIF4E protein was more than 7.00; in test [1] (Homo sapiens, Flp-In-293, 24 h), more than 6.00; in test [2] (Homo sapiens, COLO 205, 72 h), more than 5.30.
For `COc1cc(CN(C)C2CCc3nc(C)n(CCOc4ccc(Cl)cc4-c4cc(C)nc5c(C(=O)O)csc45)c(=O)c3C2)ccn1` (stereo not drawn) [Compound 248], the pIC50 on human eIF4E protein is more than 7.00; in test [1] (Homo sapiens, Flp-In-293, 24 h), more than 6.00; in test [2] (Homo sapiens, COLO 205, 72 h), more than 5.30.
